Measured values as given in US11453660B2, “Androgen receptor and glucocorticoid receptor modulators” (ONCOSTELLAE, S.L., priority 2017, dated 2022).
Where a chain is given by its changes, count along the chain named.

Columns and labels:
[1] = molecular target: T1, AR-Receptor (Homo sapiens, UniProt P10275); assay: Functional Assay AR-Receptor (MDA-MB-453 cells, luciferase); type: cell-based; conditions: antagonist effect in the presence of DHT 1 nM, 24 h, luciferase luminescence, read-out: AR antag KB
T1 sequence (P10275 1-920 Q868H): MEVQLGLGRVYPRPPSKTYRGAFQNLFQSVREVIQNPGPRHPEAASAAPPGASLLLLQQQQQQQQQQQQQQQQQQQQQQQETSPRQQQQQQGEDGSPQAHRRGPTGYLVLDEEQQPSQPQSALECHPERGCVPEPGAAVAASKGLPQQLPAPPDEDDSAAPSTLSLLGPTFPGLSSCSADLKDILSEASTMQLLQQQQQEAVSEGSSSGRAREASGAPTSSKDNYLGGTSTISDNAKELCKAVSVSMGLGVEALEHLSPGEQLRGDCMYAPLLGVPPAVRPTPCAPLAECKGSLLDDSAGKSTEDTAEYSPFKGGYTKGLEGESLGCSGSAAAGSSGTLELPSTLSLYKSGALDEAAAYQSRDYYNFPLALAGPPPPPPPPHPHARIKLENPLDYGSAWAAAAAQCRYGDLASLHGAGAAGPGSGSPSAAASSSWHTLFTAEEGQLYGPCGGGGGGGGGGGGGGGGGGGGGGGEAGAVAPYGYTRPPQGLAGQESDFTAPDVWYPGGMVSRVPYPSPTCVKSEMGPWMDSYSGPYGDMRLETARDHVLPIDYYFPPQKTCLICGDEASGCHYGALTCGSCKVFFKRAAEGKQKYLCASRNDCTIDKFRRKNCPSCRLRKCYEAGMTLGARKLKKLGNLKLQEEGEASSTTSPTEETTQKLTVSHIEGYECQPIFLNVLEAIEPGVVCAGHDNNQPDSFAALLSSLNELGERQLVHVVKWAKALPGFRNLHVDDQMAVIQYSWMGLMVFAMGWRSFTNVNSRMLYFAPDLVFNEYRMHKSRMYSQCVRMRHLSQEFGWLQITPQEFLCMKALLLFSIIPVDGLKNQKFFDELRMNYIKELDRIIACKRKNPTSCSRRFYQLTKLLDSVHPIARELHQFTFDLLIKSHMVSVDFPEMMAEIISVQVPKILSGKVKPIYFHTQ
Protocol: Functional Assay AR-Receptor
MDA-MB-453 cells were cultured in DMEM (ATCC, ref 30-2002), 10% FBS, 1% penicillin, 1% streptomycin, 75 μg/ml gentamycin.
The day before performing assay, the cells were trypsinized and seeded in a 384-well plate (Greiner, ref 781098) (8000 cells/well) in 50 μl of complete culture medium. Cells were stores at 37° C. in a 5% CO2 atmosphere overnight.
The medium was replaced by 50 μl complete growth medium with 0.1% FBS. Compounds were dispensed with Echo 550 (Labcyte) and incubated for 24 h at 37° C. in a 5% CO2 atmosphere. Antagonist effect was measured in the presence of DHT 1 nM.
After incubation, assay medium removed and 20 μl of 1× Promega lysis buffer were added to each well. The plate was incubated 15 minutes at RT and quick-frozen to −80° C. and the thaw to room temperature. 50 μl of luciferase substrate (E4550, Promega) were added to each well and luminescence (integration time 1000 msec) was read in an EnSpire multilabel reader (Perkin Elmer).

[2] = molecular target: T2, human androgen receptor (Homo sapiens, UniProt P10275, T878A); assay: Human Androgen Receptor Binding (radioligand binding, LnCap prostate cancer cell line); conditions: LnCap cells, displacement of [^3H]-methyltrienolone, 2 hours at 37° C.; read-out: AR LNCaP
T2 construct: endogenously expressed human androgen receptor using the LnCap prostate cancer cell line; endogenous in cells; host or cells: LNCaP prostate cancer cell line (whole cells)
T2 sequence (P10275 1-920 T878A): T1 sequence (P10275 1-920 Q868H) with H868Q, T878A
Method in brief: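 Whole-cell displacement of [3H]-methyltrienolone from endogenous AR (T878A) in LnCap cells, in RPMI with 0.1% BSA and triamcinolone acetonide. Compounds 10 μM to 0.1 nM in 1:10 steps, 2 h at 37 °C; cells washed, SDS-lysed, bound radioactivity by scintillation counting for IC50.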

[3] = molecular target: T3, Human Glucocorticoid Receptor (Homo sapiens, UniProt P04150); assay: Competition Binding in IM-9 Human Glucocorticoid Receptor (GR IM-9); conditions: cytosol from IM-9 cell line, 1.5 nM [3H]-Dexamethasone, 4° C. for 6 hours
T3 construct: endogenous in cells; host or cells: cytosol from IM-9 cell line
T3 sequence (P04150 1-777): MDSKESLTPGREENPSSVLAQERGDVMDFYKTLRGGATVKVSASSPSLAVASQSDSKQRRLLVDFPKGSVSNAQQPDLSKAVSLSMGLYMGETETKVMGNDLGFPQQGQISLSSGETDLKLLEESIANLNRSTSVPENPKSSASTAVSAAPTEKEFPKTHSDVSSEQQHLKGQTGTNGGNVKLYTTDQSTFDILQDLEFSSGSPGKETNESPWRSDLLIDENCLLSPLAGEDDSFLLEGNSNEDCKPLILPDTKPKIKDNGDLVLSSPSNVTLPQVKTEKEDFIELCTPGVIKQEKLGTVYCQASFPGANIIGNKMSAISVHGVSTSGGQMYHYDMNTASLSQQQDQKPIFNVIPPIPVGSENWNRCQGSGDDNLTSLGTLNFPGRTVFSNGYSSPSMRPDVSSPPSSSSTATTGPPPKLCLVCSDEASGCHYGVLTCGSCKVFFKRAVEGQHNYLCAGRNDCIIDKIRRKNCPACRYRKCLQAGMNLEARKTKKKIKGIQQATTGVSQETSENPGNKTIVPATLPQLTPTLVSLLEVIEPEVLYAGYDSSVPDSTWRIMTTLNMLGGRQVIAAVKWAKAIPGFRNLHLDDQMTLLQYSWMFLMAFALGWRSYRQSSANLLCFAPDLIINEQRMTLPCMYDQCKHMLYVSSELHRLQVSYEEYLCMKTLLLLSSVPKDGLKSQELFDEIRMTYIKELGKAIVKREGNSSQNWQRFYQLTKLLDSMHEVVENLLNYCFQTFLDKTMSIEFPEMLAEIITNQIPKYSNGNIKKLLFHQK
Method in brief: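 Radioligand competition using 100 μg IM-9 cell cytosol and 1.5 nM [3H]-dexamethasone, incubated 6 h at 4° C in TES/molybdate buffer, pH 7.4. Filtration on PEI-treated GF/B filters, scintillation counting; nonspecific binding defined with 10 μM triamcinolone.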

| Kb [1] [nM] | IC50 [2] [nM] | IC50 [3] [nM] | SMILES |
| --- | --- | --- | --- |
| 100 to 1000 | ≥ 1000 | – | CC(=O)C1=C(C)NC(C2CC2)=C(C(=O)OCc2ccncc2)C1c1csc2ccccc12 (stereo not shown) [Example J32, Pyridin-4-ylmethyl 5-acetyl-4-(benzo[b]thiophen-3-yl)-2-cyclopropyl-6-methyl-1,4-dihydropyridine-3-carboxylate] |
| ≥ 1000 | – | 100 to 1000 | CC(=O)C1=C(C)NC(C)=C(C(=O)OCc2ccc(Cl)nc2)C1c1csc2ncccc12 (stereo not shown) [Example C74, (6-chloropyridin-3-yl)methyl 5-acetyl-2,6-dimethyl-4-(thieno[2,3-b]pyridin-3-yl)-1,4-dihydropyridine-3-carboxylate] |
| < 100 | – | 100 to 1000 | CC(=O)C1=C(C)NC(C2CC2)=C(C(=O)OCC2CC2)C1c1csc2cc(C#N)ccc12 (stereo not shown) [Example C122, Cyclopropylmethyl 5-acetyl-4-(6-cyanobenzo[b]thiophen-3-yl)-2-cyclopropyl-6-methyl-1,4-dihydropyridine-3-carboxylate] |
| 100 to 1000 | – | ≥ 1000 | CC(=O)C1=C(C)NC(C)=C(C(=O)OCc2ccncc2)C1c1csc2ncccc12 (stereo not shown) [Example C64, Pyridin-4-ylmethyl 5-acetyl-2,6-dimethyl-4-(thieno[2,3-b]pyridin-3-yl)-1,4dihydropyridine-3-carboxylate] |
| 100 to 1000 | 100 to 1000 | – | CC(=O)C1=C(C)NC(C)=C(C(=O)OCc2ccncc2)C1c1csc2c(Br)cccc12 (stereo not shown) [Example J33, Pyridin-4-ylmethyl 5-acetyl-4-(7-bromobenzo[b]thiophen-3-yl)-2,6-dimethyl-1,4-dihydropyridine-3-carboxylate] |
| ≥ 1000 | – | < 100 | COC(=O)C1=C(C2CC2)NC(C2CC2)=C(C#N)C1c1csc2c(C#N)cccc12 (stereo not shown) [Example C107, Methyl 5-cyano-4-(7-cyanobenzo[b]thiophen-3-yl)-2,6-dicyclopropyl-1,4-dihydropyridine-3-carboxylate] |
| ≥ 1000 | – | < 100 | CC(=O)C1=C(C)NC(C)=C(C(=O)OCc2cccc(CN3CCN(C)CC3)c2)C1c1csc2c(Br)cccc12 (stereo not shown) [Example C108, 3-((4-methylpiperazin-1-yl)methyl)benzyl 5-acetyl-4-(7-bromobenzo[b]thiophen-3-yl)-2,6-dimethyl-1,4-dihydropyridine-3-carboxylate] |
| ≥ 1000 | – | 100 to 1000 | CC(=O)C1=C(C)NC(C)=C(C(=O)OCc2cncc(-c3ccncc3)c2)C1c1csc2ncccc12 (stereo not shown) [Example L7, [3,4′-bipyridin]-5-ylmethyl 5-acetyl-2,6-dimethyl-4-(thieno[2,3-b]pyridin-3-yl)-1,4-dihydropyridine-3-carboxylate] |
| ≥ 1000 | – | < 100 | CC(=O)C1=C(C)NC(C)=C(C(=O)OCc2ccccc2-c2ccncc2)C1c1csc2ncccc12 (stereo not shown) [Example L5, 2-(pyridin-4-yl)benzyl 5-acetyl-2,6-dimethyl-4-(thieno[2,3-b]pyridin-3-yl)-1,4-dihydropyridine-3-carboxylate] |
| ≥ 1000 | – | < 100 | CC(=O)C1=C(C)NC(C)=C(C(=O)OC2CCC(F)(F)CC2)C1c1csc2ncccc12 (stereo not shown) [Example C79, 4,4-difluorocyclohexyl 5-acetyl-2,6-dimethyl-4-(thieno[2,3-b]pyridin-3-yl)-1,4-dihydropyridine-3-carboxylate] |
| 100 to 1000 | – | ≥ 1000 | CC(=O)C1=C(C)NC(C)=C(C(=O)OCc2cccnc2)C1c1csc2ncccc12 (stereo not shown) [Example C61, Pyridin-3-ylmethyl 5-acetyl-2,6-dimethyl-4-(thieno[2,3-b]pyridin-3-yl)-1,4-dihydropyridine-3-carboxylate] |
| ≥ 1000 | – | ≥ 1000 | CC(=O)C1=C(C)NC(C)=C(C(=O)N(C)Cc2ccccc2)C1c1csc2ncccc12 (stereo not shown) [Example C80, 5-Acetyl-N-benzyl-N,2,6-trimethyl-4-(thieno[2,3-b]pyridin-3-yl)-1,4-dihydropyridine-3-carboxamide] |
| ≥ 1000 | – | 100 to 1000 | CC(=O)C1=C(C)NC(N)=C(C(=O)OC2CCCC2)C1c1csc2c(Br)cccc12 (stereo not shown) [Example D6, Cyclopentyl 5-acetyl-2-amino-4-(7-bromobenzo[b]thiophen-3-yl)-6-methyl-1,4-dihydropyridine-3-carboxylate] |
| ≥ 1000 | – | 100 to 1000 | CC(=O)C1=C(C)NC(C)=C(C(=O)OCc2cccc(N3CCOCC3)c2)C1c1csc2ncccc12 (stereo not shown) [Example C75, 3-morpholinobenzyl 5-acetyl-2,6-dimethyl-4-(thieno[2,3-b]pyridin-3-yl)-1,4-dihydropyridine-3-carboxylate] |
